Patent publication US9128097B2, “Method and kit for assessing viable cells” (ChemoMetec A/S, priority 2008, dated 2015)

Tested on: Drosophila S2 cells
Assay: NAM/PI staining of Drosophila S2 cells, fluorescence microscopy
Type: cell-based, Drosophila melanogaster
Conditions: S2 cells diluted 10 times in PBS; 10 μg/mL NAM
Experimental: Materials and Methods. Drosophila S2 cells were grown at 28° C. without shaking in Schneider's Drosophila medium (Invitrogen, #21720) supplemented with 10% heat-inactivated fetal bovine serum (Invitrogen, #10108-165). S2 cells (cell density 1.7×10^7, 99% viable determined using the YC-100 NucleoCounter system with diploid settings following the manufacturer's (ChemoMetec) protocol) were diluted 10 times in PBS and stained with 10 μg/mL NAM (Sigma, #01665). Cells were loaded into a NucleoCassette, containing the DNA stain propidium iodide (PI). The cells were investigated using an Olympus IX50 fluorescence microscope, and images were captured using a Lumenera CCD camera and in-house developed software. PI and NAM fluorescence were detected using, respectively, U-MWG2 (green long pass: 510-550 nm) and U-MNUA2 (UV band pass, 330-385 nm) filter cubes (Olympus).

## O=C1C=CC(=O)N1c1c2ccccc2nc2ccccc12 [NAM, N-(9-acridinyl)maleimide]
  staining of cells versus PI: NAM and PI were found to complementary stain S2 cells
